Results taken from patent US20250032625A1, “HETEROBIFUNCTIONAL MOLECULES AS TEAD INHIBITORS” (Merck Patent GmbH, priority 2021, published 2025).
Like-named read-outs stand apart in the source and are kept apart here.

What was measured:
hsTEAD1 (209-426) [1] = target: T1, hsTEAD1 (209-426) (Homo sapiens (Human), UniProt P28347); assay: Surface Plasmon Resonance (SPR) assay; type: binding; conditions: Biacore 4000, 15° C., 1:1 Langmuir model, read-out: KD TEAD1 (209-426)
Description: The kinetic and affinity parameters of protein-exemplary compound interactions were evaluated by SPR. hsTEAD1 (209-426) was immobilized onto a CM7 (Series S) sensor chip via the standard amine coupling procedure, at 15° C. Prior to immobilization, the carboxymethylated surface of the chip was activated with 400 mM 1-ethyl-3-(3-dimethylaminopropyl)-carbodiimide and 100 mM N-hydroxysuccinimide for 10 min. hsTEAD1 (209-426) was diluted to 11 μg/mL in 10 mM Bis-Tris at pH 6.5 and immobilized on the activated surface chip for 8 and 10 min, in order to reach 6000 to 9000 response units (RU). The remaining activated carboxymethylated groups were blocked with a 7 min injection of 1 M ethanolamine pH 8.5 after which the surface chip was washed with 0.5% (w/v) sodium dodecyl sulphate and 50 mM glycine. HBS-N, which consists of 10 mM HEPES pH 7.4 and 150 mM NaCl, was used as the background buffer during immobilization. Exemplary compounds were prediluted in DMSO, diluted 1:50 in running buffer (20 mM Tris pH 7.4, 150 mM NaCl, 1 mM DTT, 5 mM MgCl2, 0.1 mM EGTA, 0.05% CHAPS) and injected at ten different concentrations using two-fold dilution series, from 100 μM to 0.2 μM. A DMSO solvent correction (1%-3%) was performed to account for variations in bulk signal and to achieve high-quality data. Interaction analysis cycles consisted of a 240 sec sample injection (30 μL/min; association phase) followed by 600 sec of buffer flow (dissociation phase).
All sensorgrams were processed by first subtracting the binding response recorded from the control surface (reference spot), followed by subtracting of the buffer blank injection from the reaction spot. All datasets were fit to a simple 1:1 Langmuir interaction model to determine the kinetic rate constants, KD. Experiments were performed on a Biacore 4000 (Cytiva, Uppsala, Sweden) at 15° C. and the interactions were evaluated using the provided Biacore 4000 evaluation software.

hsTEAD2 (217-447) = hsTEAD2 (217-447) (Homo sapiens (Human), UniProt Q15562); assay: Thermal shift measurement / Differential Scanning Fluorimetry (DSF); type: binding; conditions: 100 uM compound, 2 hours at 4° C., triplicates; read-out: ΔTm TEAD2 (217-447)
Description: (§1) Interaction of exemplary compounds with the various TEAD isoforms TEAD1, TEAD2, TEAD3, and TEAD4 was performed in a DSF assay. YAP-binding domains (YBD) of the four isoforms were subcloned and heterogeneously expressed in E. coli as a host. Initial purification was perfomed by using affinity tags, which got removed by overnight protease treatment. Further purification of TEAD isoforms was performed by Size-Exclusion Chromatography (SEC). Target protein containing fractions were pooled, concentrated with an Amicon (10 KDa MWCO) and quantified using the Bradford assay. Exemplary compound testing in the DSF assay for determining the shift of the TEAD isoform melting temperatures has been performed as described below: DSF was performed in MicroAmpTM EnduraPlateTM Optical 96-Well Clear Reaction Plates (Applied Biosystems, Life Technologies, California, USA) using a QuantStudio 7 Flex Real-Time PCR System (Applied Biosystems). Protein samples were briefly centrifuged before preparation. The final reaction mixture (20 μL of total volume) contained 11.8 μM of […]1 (209-426), 7.3 μM of […]2 (217-447), 7.9 μM of […]3 (216-435) or 11.7 μM of […]4 (217-424), and 2 or 4-fold of Protein Thermal ShiftTM Dye (Applied Biosystems) diluted in protein buffer-20 mM Tris pH 8.0, 150 mM NaCl (+0.5 mM TCEP for TEAD1 experiments). Prior to the addition of the dye, proteins were incubated with either 1 μL DMSO 100% (apo) or 100 uM of each exemplary compound (1 μL at 2 mM in 100% DMSO added to the […] reaction mixture) for 2 hours at 4° C. The melting curve data was recorded from 25 to 90° C. with an increment rate of 0.016° C.s^-1. Excitation and emission filters were applied for Protein Thermal ShiftTM Dye (470 nm and 520 nm, respectively) and for ROX reference dye (580 nm and 623 nm, respectively). The melting temperatures (Tm) were obtained by calculating the midpoint of each transition, using the Protein Thermal Shift SoftwareTM version 1.3. The thermal stability effect of each compound (ΔTm) was calculated by subtracting the calculated Tm in presence and absence (apo) of compound. All samples were tested in triplicates.

hsTEAD3 (216-435) = hsTEAD3 (216-435) (Homo sapiens (Human), UniProt Q99594); assay: as above; type: binding; conditions: 100 uM compound, 2 hours at 4° C., triplicates; read-out: ΔTm TEAD3 216-435
Description: as §1

hsTEAD1 (209-426) [2] = target: T1, hsTEAD1 (209-426); assay: as above; type: binding; conditions: 100 uM compound, 2 hours at 4° C., triplicates; read-out: ΔTm TEAD1 (209-426)
Description: as §1

hsTEAD4 (217-424) = hsTEAD4 (217-424) (Homo sapiens (Human), UniProt Q15561); assay: as above; type: binding; conditions: 100 uM compound, 2 hours at 4° C., triplicates; read-out: ΔTm TEAD4 217-434
Description: as §1

TEAD1 in NCI-H226 cells = TEAD1 in NCI-H226 cells (Homo sapiens (Human), UniProt P28347); assay: TEAD degradation in NCI-H226 cell line (immunofluorescence); type: cell-based
In short: (§2)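 SK-HEP1 and NCI-H226 cells were treated in duplicate for 16 or 24 h at 37 °C with compound (10 points, 1:3, top 30 µM final). After fixation, TEAD1 was immunostained with anti-TEF1 and per-cell fluorescence quantified by high-content imaging. DC50 from curve fitting.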

TEAD1 in SK-HEP1 cells = TEAD1 in SK-HEP1 cells (Homo sapiens (Human), UniProt P28347); assay: TEAD degradation in SK-HEP1 cell line (immunofluorescence); type: cell-based
In short: as §2

[3] = 24 h incubation, read-out: DC50 NCI-H226 24 h
[4] = 24 hours, ranges, read-out: DC50 NCI-H226
[5] = 24 hours, ranges, read-out: DC50 SK-HEP1

T1 sequence (P28347 209-426): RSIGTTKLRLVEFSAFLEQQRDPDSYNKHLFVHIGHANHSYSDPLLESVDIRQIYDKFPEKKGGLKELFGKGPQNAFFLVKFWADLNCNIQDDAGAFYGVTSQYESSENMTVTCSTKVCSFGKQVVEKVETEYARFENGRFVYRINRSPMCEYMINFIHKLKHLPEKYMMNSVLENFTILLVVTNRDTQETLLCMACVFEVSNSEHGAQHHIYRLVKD
hsTEAD4 (217-424), sequence (Q15561 217-434): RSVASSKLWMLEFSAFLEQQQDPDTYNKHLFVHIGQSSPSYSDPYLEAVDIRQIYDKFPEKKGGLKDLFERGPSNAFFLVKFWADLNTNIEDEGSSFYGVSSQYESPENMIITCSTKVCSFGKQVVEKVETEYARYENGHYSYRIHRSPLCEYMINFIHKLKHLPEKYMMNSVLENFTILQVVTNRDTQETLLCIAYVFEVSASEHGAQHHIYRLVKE
hsTEAD3 (216-435), sequence (Q99594 216-435): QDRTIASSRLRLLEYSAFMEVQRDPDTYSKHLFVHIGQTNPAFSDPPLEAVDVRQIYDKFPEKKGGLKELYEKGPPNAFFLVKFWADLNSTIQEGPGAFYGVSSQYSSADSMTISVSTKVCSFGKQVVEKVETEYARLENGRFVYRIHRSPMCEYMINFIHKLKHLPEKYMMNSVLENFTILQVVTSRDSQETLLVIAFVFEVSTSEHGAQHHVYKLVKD
hsTEAD2 (217-447), sequence (Q15562 217-447): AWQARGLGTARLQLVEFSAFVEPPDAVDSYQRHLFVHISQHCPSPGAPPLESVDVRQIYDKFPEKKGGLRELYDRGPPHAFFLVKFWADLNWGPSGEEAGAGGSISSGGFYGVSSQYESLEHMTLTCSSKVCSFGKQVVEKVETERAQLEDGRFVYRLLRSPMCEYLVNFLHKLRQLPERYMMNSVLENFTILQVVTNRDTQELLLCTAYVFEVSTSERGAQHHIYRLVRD
TEAD1 in NCI-H226 cells, sequence (P28347 whole entry): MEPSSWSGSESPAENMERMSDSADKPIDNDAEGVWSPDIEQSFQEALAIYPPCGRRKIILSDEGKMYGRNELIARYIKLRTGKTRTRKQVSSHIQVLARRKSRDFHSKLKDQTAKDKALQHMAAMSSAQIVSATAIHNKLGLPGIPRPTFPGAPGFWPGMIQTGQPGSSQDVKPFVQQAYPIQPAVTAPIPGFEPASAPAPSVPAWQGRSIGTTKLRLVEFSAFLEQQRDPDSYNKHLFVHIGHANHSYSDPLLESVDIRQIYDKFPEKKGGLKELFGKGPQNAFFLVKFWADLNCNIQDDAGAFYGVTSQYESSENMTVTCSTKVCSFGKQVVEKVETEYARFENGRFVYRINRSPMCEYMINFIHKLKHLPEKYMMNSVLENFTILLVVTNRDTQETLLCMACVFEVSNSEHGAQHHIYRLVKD
TEAD1 in SK-HEP1 cells, sequence (P28347 whole entry): as above

Row | Structure (SMILES) | Kd (hsTEAD1 (209-426) [1]) | ΔTm at 100 µM (hsTEAD2 (217-447)) | ΔTm at 100 µM (hsTEAD3 (216-435)) | ΔTm at 100 µM (hsTEAD1 (209-426) [2]) | ΔTm at 100 µM (hsTEAD4 (217-424)) | DC50 (TEAD1 in NCI-H226 cells; 16 h incubation, read-out: DC50 NCI-H226 16 h) | DC50 (TEAD1 in NCI-H226 cells; [3]) | DC50 (TEAD1 in NCI-H226 cells; [4]) | DC50 (TEAD1 in SK-HEP1 cells; 24 h incubation, read-out: DC50 SK-HEP1 24 h) | DC50 (TEAD1 in SK-HEP1 cells; [5])
1 | Cn1cc2c3cc(C(=O)NCCOCCOCCNC(=O)COCCOCCOCCOCCOCC(=O)Nc4cccc5c4C(=O)N(C4CCC(=O)NC4=O)C5=O)ccc3n(-c3ccc(C(F)(F)F)cc3)c2n1 (stereo not drawn) [Compound 1, N′-[2-(2,6-dioxopiperidin-3-yl)-1,3-dioxo-2,3-dihydro-1H-isoindol-4-yl]-N-(2-{2-[2-({2-methyl-8-[4-(trifluoromethyl)phenyl]-2H,8H-pyrazolo[3,4-b]indol-5-yl}formamido)ethoxy]ethoxy}ethyl)-3,6,9,12,15-pentaoxaheptadecanediamide] | 1870 nM | 0 °C | 0 °C | 4.7 °C | – | – | – | – | – | –
2 | Cn1cc2c3cc(C(=O)NCCOCCOCCNC(=O)COCCOCCOCC(=O)Nc4cccc5c4C(=O)N(C4CCC(=O)NC4=O)C5=O)ccc3n(-c3ccc(C(F)(F)F)cc3)c2n1 (stereo not drawn) [Compound 2, 2-{2-[2-({[2-(2,6-dioxopiperidin-3-yl)-1,3-dioxo-2,3-dihydro-1H-isoindol-4-yl]carbamoyl}methoxy)ethoxy]ethoxy}-N-(2-{2-[2-({2-methyl-8-[4-(trifluoromethyl)phenyl]-2H,8H-pyrazolo[3,4-b]indol-5-yl}formamido)ethoxy]ethoxy}ethyl)acetamide] | 1520 nM | 0.7 °C | 1.3 °C | 4.1 °C | 0 °C | – | – | – | – | –
3 | Cc1ncsc1-c1ccc(CNC(=O)[C@@H]2C[C@@H](O)CN2C(=O)[C@@H](NC(=O)COCCOCCOCCOCC(=O)NCCOCCOCCNC(=O)c2ccc3c(c2)c2cn(C)nc2n3-c2ccc(C(F)(F)F)cc2)C(C)(C)C)cc1 [Compound 3, N-[(2S)-1-[(2S,4R)-4-hydroxy-2-({[4-(4-methyl-1,3-thiazol-5-yl)phenyl]methyl}carbamoyl)pyrrolidin-1-yl]-3,3-dimethyl-1-oxobutan-2-yl]-N′-(2-{2-[2-({2-methyl-8-[4-(trifluoromethyl)phenyl]-2H,8H-pyrazolo[3,4-b]indol-5-yl}formamido)ethoxy]ethoxy}ethyl)-3,6,9,12-tetraoxatetradecanediamide] | 320 nM | – | – | 3.4 °C | 0.7 °C | 3000 nM | 10000 nM | – | – | –
4 | Cc1ncsc1-c1ccc(CNC(=O)[C@H]2C[C@H](O)CN2C(=O)[C@H](NC(=O)COCCOCCOCCOCCOCCNC(=O)c2ccc3c(c2)c2cn(C)nc2n3-c2ccc(C(F)(F)F)cc2)C(C)(C)C)cc1 [Compound 11, (2R,4S)-1-[(2R)-3,3-dimethyl-2-[17-({2-methyl-8-[4-(trifluoromethyl)phenyl]-2H,8H-pyrazolo[3,4-b]indol-5-yl}formamido)-3,6,9,12,15-pentaoxaheptadecanamido]butanoyl]-4-hydroxy-N-{[4-(4-methyl-1,3-thiazol-5-yl)phenyl]methyl}pyrrolidine-2-carboxamide] | – | 0.3 °C | 1.3 °C | 4.5 °C | -0.2 °C | – | – | 100 to 1000 nM | – | 100 to 1000 nM
5 | Cn1cc2c3cc(C(=O)NCCOCCOCCNC(=O)CCCNc4cccc5c4CN(C4CCC(=O)NC4=O)C5=O)ccc3n(-c3ccc(C(F)(F)F)cc3)c2n1 (stereo not drawn) [Compound 14, 4-{[2-(2,6-dioxopiperidin-3-yl)-1-oxo-2,3-dihydro-1H-isoindol-4-yl]amino}-N-(2-{2-[2-({2-methyl-8-[4-(trifluoromethyl)phenyl]-2H,8H-pyrazolo[3,4-b]indol-5-yl}formamido)ethoxy]ethoxy}ethyl) butanamide] | 482 nM | – | – | – | – | – | – | – | – | –

Next, values leading:

Row | Kd (hsTEAD1 (209-426) [1]) | ΔTm at 100 µM (hsTEAD2 (217-447)) | ΔTm at 100 µM (hsTEAD3 (216-435)) | ΔTm at 100 µM (hsTEAD1 (209-426) [2]) | ΔTm at 100 µM (hsTEAD4 (217-424)) | DC50 (TEAD1 in NCI-H226 cells; 16 h incubation, read-out: DC50 NCI-H226 16 h) | DC50 (TEAD1 in NCI-H226 cells; [3]) | DC50 (TEAD1 in NCI-H226 cells; [4]) | DC50 (TEAD1 in SK-HEP1 cells; 24 h incubation, read-out: DC50 SK-HEP1 24 h) | DC50 (TEAD1 in SK-HEP1 cells; [5]) | Structure (SMILES)
6 | 1400 nM | – | – | -1.1 °C | 1.4 °C | – | – | 100 to 1000 nM | – | – | Cn1cc2c3cc(C(=O)NCCOCCOCCNC(=O)CCCCCCNc4cccc5c4C(=O)N(C4CCC(=O)NC4=O)C5=O)ccc3n(-c3ccc(C(F)(F)F)cc3)c2n1 (stereo not drawn) [Compound 6, 7-{[2-(2,6-dioxopiperidin-3-yl)-1,3-dioxo-2,3-dihydro-1H-isoindol-4-yl]amino}-N-(2-{2-[2-({2-methyl-8-[4-(trifluoromethyl)phenyl]-2H,8H-pyrazolo[3,4-b]indol-5-yl}formamido)ethoxy]ethoxy}ethyl) heptanamide]
7 | 970 nM | – | – | – | – | – | 30000 nM | – | 2400 nM | 1000 to 3000 nM | Cn1cc2c3cc(C(=O)NCCOCCOCCNC(=O)CCCCNc4cccc5c4CN(C4CCC(=O)NC4=O)C5=O)ccc3n(-c3ccc(C(F)(F)F)cc3)c2n1 (stereo not drawn) [Compound 9, 5-{[2-(2,6-dioxopiperidin-3-yl)-1-oxo-2,3-dihydro-1H-isoindol-4-yl]amino}-N-(2-{2-[2-({2-methyl-8-[4-(trifluoromethyl)phenyl]-2H,8H-pyrazolo[3,4-b]indol-5-yl}formamido)ethoxy]ethoxy}ethyl) pentanamide]
8 | 980 nM | – | – | – | – | – | – | – | – | – | CN1C(=O)CCC(N2C(=O)c3cccc(NC(=O)COCCOCCOCCOCCNC(=O)c4ccc5c(c4)c4cn(C)nc4n5-c4ccc(C(F)(F)F)cc4)c3C2=O)C1=O (stereo not drawn) [Compound 36, N-[2-(1-methyl-2,6-dioxopiperidin-3-yl)-1,3-dioxo-2,3-dihydro-1H-isoindol-4-yl]-14-({2-methyl-8-[4-(trifluoromethyl)phenyl]-2H,8H-pyrazolo[3,4-b]indol-5-yl}formamido)-3,6,9,12-tetraoxatetradecanamide]
